Calls of active or inactive are those of the source. No rule for the calls is given here.
Tested on: CCRIS mutagenicity, Ames/micronucleus/aberration tests
Test: CCRIS mutagenicity studies
[1] = Test System: AMES SALMONELLA TYPHIMURIUM, Strain/Indicator: TA98, Metabolic Activation: NONE, Method: PREINCUBATION
[2] = Test System: AMES SALMONELLA TYPHIMURIUM, Strain/Indicator: TA98, Metabolic Activation: RAT, LIVER, S-9, AROCLOR 1254, Method: PREINCUBATION
[3] = Test System: AMES SALMONELLA TYPHIMURIUM, Strain/Indicator: TA100, Metabolic Activation: NONE, Method: PREINCUBATION

N[C@@H](CCC(=O)NNc1ccc(CO)cc1)C(=O)O
mutagenic call (Test System: AMES SALMONELLA TYPHIMURIUM, Strain/Indicator: TA97, Metabolic Activation: NONE): active; positive
mutagenic call (Test System: AMES SALMONELLA TYPHIMURIUM, Strain/Indicator: TA98, Metabolic Activation: NONE): inactive; negative
mutagenic call (Test System: AMES SALMONELLA TYPHIMURIUM, Strain/Indicator: TA100, Metabolic Activation: NONE): inactive; negative
mutagenic call (Test System: AMES SALMONELLA TYPHIMURIUM, Strain/Indicator: TA102, Metabolic Activation: NONE): inactive; negative
mutagenic call (Test System: AMES SALMONELLA TYPHIMURIUM, Strain/Indicator: TA104, Metabolic Activation: MUSHROOM TYROSINASE, Method: PREINCUBATION): inactive; negative
mutagenic call (Test System: AMES SALMONELLA TYPHIMURIUM, Strain/Indicator: TA104, Metabolic Activation: NONE): active; positive
mutagenic call (Test System: AMES SALMONELLA TYPHIMURIUM, Strain/Indicator: TA104, Metabolic Activation: NONE, Method: PREINCUBATION): inactive; negative
mutagenic call (Test System: AMES SALMONELLA TYPHIMURIUM, Strain/Indicator: TA104, Metabolic Activation: RAT, KIDNEY, HOMOGENATE, REDUCED GLUTATHIONE, Method: PREINCUBATION): active; positive
mutagenic call (Test System: AMES SALMONELLA TYPHIMURIUM, Strain/Indicator: TA104, Metabolic Activation: RAT, KIDNEY, HOMOGENATE, Method: PREINCUBATION): active; positive
mutagenic call (Test System: AMES SALMONELLA TYPHIMURIUM, Strain/Indicator: TA104, Metabolic Activation: RAT, LIVER, CYTOSOL, AROCLOR 1254, NADPH, Method: PREINCUBATION): active; positive
mutagenic call (Test System: AMES SALMONELLA TYPHIMURIUM, Strain/Indicator: TA104, Metabolic Activation: RAT, LIVER, CYTOSOLIC FRACTION, AROCLOR 1254 (10%)): active; positive
mutagenic call (Test System: AMES SALMONELLA TYPHIMURIUM, Strain/Indicator: TA104, Metabolic Activation: RAT, LIVER, MICROSOMES, AROCLOR 1254, Method: PREINCUBATION): inactive; negative
mutagenic call (Test System: AMES SALMONELLA TYPHIMURIUM, Strain/Indicator: TA104, Metabolic Activation: RAT, LIVER, MICROSOMES, AROCLOR 1254 AND RAT, KIDNEY, HOMOGENATE, Method: PREINCUBATION): active; positive
mutagenic call (Test System: AMES SALMONELLA TYPHIMURIUM, Strain/Indicator: TA1535, Metabolic Activation: NONE): inactive; negative
mutagenic call (Test System: AMES SALMONELLA TYPHIMURIUM, Strain/Indicator: TA1535, Metabolic Activation: NONE, Method: PREINCUBATION): inactive; negative
mutagenic call (Test System: AMES SALMONELLA TYPHIMURIUM, Strain/Indicator: TA1535, Metabolic Activation: RAT, LIVER, S-9, AROCLOR 1254, Method: PREINCUBATION): inactive; negative
mutagenic call (Test System: AMES SALMONELLA TYPHIMURIUM, Strain/Indicator: TA1537, Metabolic Activation: NONE): active; positive
mutagenic call (Test System: AMES SALMONELLA TYPHIMURIUM, Strain/Indicator: TA1537, Metabolic Activation: NONE, Method: PREINCUBATION): inactive; negative
mutagenic call (Test System: AMES SALMONELLA TYPHIMURIUM, Strain/Indicator: TA1537, Metabolic Activation: RAT, LIVER, S-9, AROCLOR 1254, Method: PREINCUBATION): inactive; negative
mutagenic call (Test System: AMES SALMONELLA TYPHIMURIUM, Strain/Indicator: TA1538, Metabolic Activation: NONE): inactive; negative

OCC1CCCO1 (stereo not given)
mutagenic call [1]: inactive; negative
mutagenic call [2]: inactive; negative
mutagenic call [3]: inactive; negative
mutagenic call (Test System: AMES SALMONELLA TYPHIMURIUM, Strain/Indicator: TA100, Metabolic Activation: RAT, LIVER, S-9, AROCLOR 1254, Method: PREINCUBATION): inactive; negative
mutagenic call (Test System: AMES SALMONELLA TYPHIMURIUM, Strain/Indicator: TA102, Metabolic Activation: NONE, Method: PREINCUBATION): inactive; negative
mutagenic call (Test System: AMES SALMONELLA TYPHIMURIUM, Strain/Indicator: TA102, Metabolic Activation: RAT, LIVER, S-9, AROCLOR 1254, Method: PREINCUBATION): inactive; negative

CC(C)(c1ccc(OP(O)O)cc1)c1ccc(OP(O)O)cc1
mutagenic call (Test System: AMES SALMONELLA TYPHIMURIUM, Strain/Indicator: TA97, Metabolic Activation: NONE, Method: STANDARD PLATE): inactive; negative
mutagenic call (Test System: AMES SALMONELLA TYPHIMURIUM, Strain/Indicator: TA97, Metabolic Activation: S-9, Method: STANDARD PLATE): inactive; negative
mutagenic call (Test System: AMES SALMONELLA TYPHIMURIUM, Strain/Indicator: TA98, Metabolic Activation: NONE, Method: STANDARD PLATE): inactive; negative
mutagenic call (Test System: AMES SALMONELLA TYPHIMURIUM, Strain/Indicator: TA98, Metabolic Activation: S-9, Method: STANDARD PLATE): inactive; negative
mutagenic call (Test System: AMES SALMONELLA TYPHIMURIUM, Strain/Indicator: TA100, Metabolic Activation: NONE, Method: STANDARD PLATE): inactive; negative
mutagenic call (Test System: AMES SALMONELLA TYPHIMURIUM, Strain/Indicator: TA100, Metabolic Activation: S-9, Method: STANDARD PLATE): inactive; negative
mutagenic call (Test System: AMES SALMONELLA TYPHIMURIUM, Strain/Indicator: TA102, Metabolic Activation: NONE, Method: STANDARD PLATE): inactive; negative
mutagenic call (Test System: AMES SALMONELLA TYPHIMURIUM, Strain/Indicator: TA102, Metabolic Activation: S-9, Method: STANDARD PLATE): inactive; negative
mutagenic call (Test System: E.COLI, Strain/Indicator: WP2 (PKM101), Metabolic Activation: NONE, Method: STANDARD PLATE): inactive; negative
mutagenic call (Test System: E.COLI, Strain/Indicator: WP2 (PKM101), Metabolic Activation: S-9, Method: STANDARD PLATE): inactive; negative

C=CCN1CCC=C2c3nc(NC(C)=O)sc3CCC21 (stereo not given)
mutagenic call (Test System: AMES SALMONELLA TYPHIMURIUM, Strain/Indicator: TA1538, Metabolic Activation: RAT, LIVER, S-9, AROCLOR 1254, Method: STANDARD PLATE): inactive; negative

CC(=O)Nc1ccc(Oc2ccc(NO)cc2)cc1
mutagenic call (Test System: AMES SALMONELLA TYPHIMURIUM, Strain/Indicator: TA98(1,8-DNP6), Metabolic Activation: NONE, Method: PREINCUBATION): active; positive
mutagenic call (Test System: AMES SALMONELLA TYPHIMURIUM, Strain/Indicator: TA98(1,8-DNP6), Metabolic Activation: RAT, LIVER, S-9, AROCLOR 1254, Method: PREINCUBATION): active; positive
mutagenic call (Test System: AMES SALMONELLA TYPHIMURIUM, Strain/Indicator: TA98(NR), Metabolic Activation: NONE, Method: PREINCUBATION): active; positive
mutagenic call (Test System: AMES SALMONELLA TYPHIMURIUM, Strain/Indicator: TA98(NR), Metabolic Activation: RAT, LIVER, S-9, AROCLOR 1254, Method: PREINCUBATION): active; positive
mutagenic call [1]: active; positive
mutagenic call [2]: active; positive
mutagenic call (Test System: AMES SALMONELLA TYPHIMURIUM, Strain/Indicator: TA100(NR), Metabolic Activation: NONE, Method: PREINCUBATION): active; positive
mutagenic call [3]: active; positive

Source: PubChem BioAssay AID1259407 (Chemical Carcinogenesis Research Information System (CCRIS), 2018)
